Laboratory results taken from patent US20250197372A1 (priority 2020, published 2025).

What was measured:
Type in all cases: biochemical
[1] = target: rat sucrase (partially purified alpha-glucosidase from intestinal rat powder) (Rattus norvegicus, UniProt P23739); assay: Intestinal alpha-glucosidase assay, sucrose substrate (Glucose GO Kit)
How it was run: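 Enzyme from intestinal rat powder, partially purified, is exposed to compound for 60 min at 37 °C. Disaccharide substrate (maltose or sucrose respectively) then reacts 30 min at 37 °C. Heat-stopped samples are assayed for glucose, and percent inhibition versus concentration gives IC50 via 4-PL.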

[2] = target: T1, recombinant alpha-glucosidase II (murine full-length glucosidase II, alpha and beta subunits, Glu 2) (Mus musculus, UniProt Q8BHN3); assay: Alpha-glucosidase II assay (4-methylumbelliferyl-alpha-D-pyranoside substrate, fluorescence); details: Glucosidase 2; read-out: Glu2 IC50
T1 construct: made in house; host or cells: HEK-293T cells transduced with BacMam viruses (75% alpha, 25% beta); protein harvested from culture supernatant

[3] = target: recombinant human GAA (acid alpha-glucosidase) (Homo sapiens, UniProt P10253); assay: Acid alpha-glucosidase (GAA) assay (4-methylumbelliferyl-alpha-D-pyranoside substrate, fluorescence)
How it was run: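 Recombinant human enzyme preincubated 60 min at 37 °C with compound dilutions, then 4-methylumbelliferyl-alpha-D-pyranoside substrate added for 20 min at 37 °C. Stopped with glycine/NaOH pH 10; methylumbelliferone fluorescence (ex 365, em 440 nm) versus untreated enzyme; IC50 by 4-PL fit.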

[4] = target: T2, recombinant human GBA (beta-glucocerebrosidase) (Homo sapiens, UniProt P04062); assay: Beta-glucocerebrosidase (GBA, glucosylceramidase) assay (4-methylumbelliferyl-beta-D-pyranoside substrate, fluorescence)
T2 sequence (P04062 40-536): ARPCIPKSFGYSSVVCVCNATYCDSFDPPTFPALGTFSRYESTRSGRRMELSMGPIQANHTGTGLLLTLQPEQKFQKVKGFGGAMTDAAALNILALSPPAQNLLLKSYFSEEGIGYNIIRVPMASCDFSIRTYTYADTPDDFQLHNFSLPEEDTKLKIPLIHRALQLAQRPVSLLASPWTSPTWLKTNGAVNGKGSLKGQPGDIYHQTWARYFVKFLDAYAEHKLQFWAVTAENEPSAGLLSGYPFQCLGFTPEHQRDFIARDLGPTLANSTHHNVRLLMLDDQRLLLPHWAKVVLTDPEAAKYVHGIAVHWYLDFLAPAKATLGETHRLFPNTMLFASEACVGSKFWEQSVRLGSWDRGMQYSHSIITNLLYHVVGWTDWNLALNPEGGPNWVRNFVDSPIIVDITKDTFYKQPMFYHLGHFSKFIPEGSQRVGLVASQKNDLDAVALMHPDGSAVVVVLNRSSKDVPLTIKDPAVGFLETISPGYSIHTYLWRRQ
How it was run: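 Recombinant human GBA preincubated with compound dilutions 60 min at 37 °C, then 4-methylumbelliferyl-beta-D-pyranoside added for 60 min at 37 °C. Stopped at pH 10 (glycine/NaOH); fluorescence ex 365/em 440 nm. IC50 from 4-PL fit of inhibition relative to untreated enzyme.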

[5] = target: rat maltase (partially purified alpha-glucosidase from intestinal rat powder); assay: Intestinal alpha-glucosidase assay, maltose substrate (Glucose GO Kit)
How it was run: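 First step: 60 min, 37 °C, compound with partially purified rat intestinal alpha-glucosidase. Next, maltose or sucrose for 30 min at 37 °C, ended at 90 °C for 5 min. Glucose quantified enzymatically; concentration–inhibition data fitted 4-PL for IC50.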

T1 sequence (O08795 15-521): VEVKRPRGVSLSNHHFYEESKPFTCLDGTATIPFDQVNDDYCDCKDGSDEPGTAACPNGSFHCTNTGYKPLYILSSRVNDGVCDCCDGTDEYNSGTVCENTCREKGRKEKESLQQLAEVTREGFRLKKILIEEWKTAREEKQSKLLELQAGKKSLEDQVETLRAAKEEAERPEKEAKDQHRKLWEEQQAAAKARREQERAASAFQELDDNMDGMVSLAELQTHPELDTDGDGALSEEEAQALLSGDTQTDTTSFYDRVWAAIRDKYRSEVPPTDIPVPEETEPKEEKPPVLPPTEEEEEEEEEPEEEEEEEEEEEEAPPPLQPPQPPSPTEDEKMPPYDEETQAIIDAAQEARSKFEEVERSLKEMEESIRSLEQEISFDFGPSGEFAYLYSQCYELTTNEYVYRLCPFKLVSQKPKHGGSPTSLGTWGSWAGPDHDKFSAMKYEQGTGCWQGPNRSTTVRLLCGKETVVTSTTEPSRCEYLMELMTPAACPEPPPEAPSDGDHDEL
T1 sequence (Q8BHN3 33-944): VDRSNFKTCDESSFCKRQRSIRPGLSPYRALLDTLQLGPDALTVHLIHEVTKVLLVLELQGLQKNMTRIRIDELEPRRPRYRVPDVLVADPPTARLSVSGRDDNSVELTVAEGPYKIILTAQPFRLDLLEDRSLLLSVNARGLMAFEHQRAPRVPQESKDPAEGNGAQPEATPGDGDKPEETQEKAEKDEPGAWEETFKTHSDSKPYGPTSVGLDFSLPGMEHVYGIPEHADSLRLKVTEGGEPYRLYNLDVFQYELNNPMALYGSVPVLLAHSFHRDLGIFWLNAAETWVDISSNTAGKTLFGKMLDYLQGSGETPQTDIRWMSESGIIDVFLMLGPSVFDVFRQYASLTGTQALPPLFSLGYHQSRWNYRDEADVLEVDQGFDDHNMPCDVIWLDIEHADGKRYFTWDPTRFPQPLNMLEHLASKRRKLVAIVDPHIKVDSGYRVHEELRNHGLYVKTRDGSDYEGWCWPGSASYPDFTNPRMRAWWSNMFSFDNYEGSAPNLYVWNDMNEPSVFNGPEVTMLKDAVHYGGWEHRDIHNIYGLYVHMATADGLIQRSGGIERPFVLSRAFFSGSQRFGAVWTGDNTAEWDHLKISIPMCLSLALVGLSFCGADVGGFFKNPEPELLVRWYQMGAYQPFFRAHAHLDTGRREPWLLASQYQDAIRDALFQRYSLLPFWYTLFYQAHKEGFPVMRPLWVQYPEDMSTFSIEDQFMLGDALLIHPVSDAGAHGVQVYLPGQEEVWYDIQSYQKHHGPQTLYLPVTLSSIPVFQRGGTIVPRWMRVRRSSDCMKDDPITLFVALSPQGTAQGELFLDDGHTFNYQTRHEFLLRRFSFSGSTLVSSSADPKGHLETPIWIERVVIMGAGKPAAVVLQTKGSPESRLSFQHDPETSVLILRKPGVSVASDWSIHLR
Chain of rat sucrase (partially purified alpha-glucosidase from intestinal rat powder) (P23739 whole entry): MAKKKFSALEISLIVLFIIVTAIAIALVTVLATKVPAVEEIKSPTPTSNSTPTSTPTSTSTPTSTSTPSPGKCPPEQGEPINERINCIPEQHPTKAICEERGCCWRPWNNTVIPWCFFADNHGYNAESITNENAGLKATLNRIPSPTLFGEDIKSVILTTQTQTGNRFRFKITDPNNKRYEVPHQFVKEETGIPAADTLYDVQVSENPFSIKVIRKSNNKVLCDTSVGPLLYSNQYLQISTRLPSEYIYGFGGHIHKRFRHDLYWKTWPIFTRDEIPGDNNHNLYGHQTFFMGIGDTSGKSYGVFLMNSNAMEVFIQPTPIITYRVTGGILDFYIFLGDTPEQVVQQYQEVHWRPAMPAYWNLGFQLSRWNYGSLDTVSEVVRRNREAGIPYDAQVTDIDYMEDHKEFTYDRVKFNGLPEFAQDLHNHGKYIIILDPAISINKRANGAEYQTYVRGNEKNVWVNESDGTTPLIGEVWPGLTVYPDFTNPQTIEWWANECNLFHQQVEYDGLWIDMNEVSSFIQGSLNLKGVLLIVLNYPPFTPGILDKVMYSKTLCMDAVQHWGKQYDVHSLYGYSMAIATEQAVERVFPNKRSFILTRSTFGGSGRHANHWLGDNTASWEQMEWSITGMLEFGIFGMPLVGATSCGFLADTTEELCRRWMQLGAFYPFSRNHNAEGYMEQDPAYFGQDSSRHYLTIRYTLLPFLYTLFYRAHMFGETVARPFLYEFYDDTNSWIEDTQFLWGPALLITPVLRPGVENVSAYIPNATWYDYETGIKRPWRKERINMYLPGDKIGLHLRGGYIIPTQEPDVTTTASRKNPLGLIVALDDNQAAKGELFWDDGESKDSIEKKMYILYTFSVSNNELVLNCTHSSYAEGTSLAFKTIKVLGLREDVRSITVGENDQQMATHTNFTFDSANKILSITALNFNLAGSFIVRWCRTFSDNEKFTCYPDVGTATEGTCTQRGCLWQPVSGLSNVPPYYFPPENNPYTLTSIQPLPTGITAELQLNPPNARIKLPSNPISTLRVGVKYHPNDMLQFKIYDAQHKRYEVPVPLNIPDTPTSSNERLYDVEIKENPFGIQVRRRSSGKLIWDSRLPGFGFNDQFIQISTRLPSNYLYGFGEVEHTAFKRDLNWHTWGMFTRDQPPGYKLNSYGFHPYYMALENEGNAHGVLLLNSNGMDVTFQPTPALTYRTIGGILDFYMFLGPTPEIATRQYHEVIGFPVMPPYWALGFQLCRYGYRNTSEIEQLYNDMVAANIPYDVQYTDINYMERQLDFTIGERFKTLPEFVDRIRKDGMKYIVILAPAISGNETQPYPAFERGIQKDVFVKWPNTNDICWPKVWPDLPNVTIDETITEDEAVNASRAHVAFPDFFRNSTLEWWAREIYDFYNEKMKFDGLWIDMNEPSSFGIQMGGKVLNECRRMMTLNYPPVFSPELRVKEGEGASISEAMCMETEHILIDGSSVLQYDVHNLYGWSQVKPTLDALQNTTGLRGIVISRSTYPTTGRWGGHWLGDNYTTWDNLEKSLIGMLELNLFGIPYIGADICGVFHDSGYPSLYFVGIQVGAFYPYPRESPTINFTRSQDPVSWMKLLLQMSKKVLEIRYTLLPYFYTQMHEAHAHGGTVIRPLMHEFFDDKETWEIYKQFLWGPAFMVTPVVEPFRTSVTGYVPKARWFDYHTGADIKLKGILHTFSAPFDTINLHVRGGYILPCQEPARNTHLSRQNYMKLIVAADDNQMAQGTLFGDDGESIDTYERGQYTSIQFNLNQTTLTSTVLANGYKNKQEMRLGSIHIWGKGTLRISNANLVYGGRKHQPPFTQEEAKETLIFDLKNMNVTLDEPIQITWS

SMILES | IC50 [1] [nM] | IC50 [2] [nM] | IC50 [3] [nM] | IC50 [4] [nM] | IC50 [5] [nM]
OC[C@@H]1[C@@H](O)[C@H](O)[C@@H](O)CN1CCCCCCNc1cc(Cl)cc(CN2CCCO2)c1 [Compound 1183, (2R,3R,4R,5S)-1-[6-({3-chloro-5-[(1,2-oxazolidin-2-yl)methyl]phenyl}amino)hexyl]-2-(hydroxymethyl)piperidine-3,4,5-triol] | 94 | 4 | 90 | 5620 | 15
O=[N+]([O-])c1cc(N2CCOCC2)ccc1NCc1cccc(CN2C[C@H](O)[C@@H](O)[C@H](O)[C@H]2CO)c1 [Compound 1067, (2R,3R,4R,5S)-2-(hydroxymethyl)-1-{[3-({[4-(morpholin-4-yl)-2-nitrophenyl]amino}methyl)phenyl]methyl}piperidine-3,4,5-triol] | 80 | 12800 | 426 | 3720 | 81
[N-]=[N+]=Nc1ccc(NCCc2cc(CCN3C[C@H](O)[C@@H](O)[C@H](O)[C@H]3CO)cs2)c([N+](=O)[O-])c1 [Compound 1179, (2R,3R,4R,5S)-1-[2-(5-{2-[(4-azido-2-nitrophenyl)amino]ethyl}thiophen-3-yl)ethyl]-2-(hydroxymethyl)piperidine-3,4,5-triol] | 181 | < 1 | 692 | 380 | 1
COc1cc(-c2cnccn2)ccc1NCCCCCCN1C[C@H](O)[C@@H](O)[C@H](O)[C@H]1CO [Compound 1199, (2R,3R,4R,5S)-2-(hydroxymethyl)-1-(6-{[2-methoxy-4-(pyrazin-2-yl)phenyl]amino}hexyl)piperidine-3,4,5-triol] | 16 | 12 | 43 | 3960 | 8
Cc1nc2cc(-c3ncccn3)ccc2n1CCCCCCN1C[C@H](O)[C@@H](O)[C@H](O)[C@H]1CO [Compound 1339, (2R,3R,4R,5S)-2-(hydroxymethyl)-1-{6-[2-methyl-5-(pyrimidin-2-yl)-1H-1,3-benzodiazol-1-yl]hexyl}piperidine-3,4,5-triol] | 49 | 194 | 240 | 626 | 14
OC[C@@H]1[C@@H](O)[C@H](O)[C@@H](O)CN1CCCCCCNc1cc(Cl)cc(-c2cnccn2)c1 [Compound 1196, (2R,3R,4R,5S)-1-(6-{[3-chloro-5-(pyrazin-2-yl)phenyl]amino}hexyl)-2-(hydroxymethyl)piperidine-3,4,5-triol] | 175 | 2 | 10 | 773 | 2
[N-]=[N+]=Nc1ccc(NCCc2cc(Br)cc(CCN3C[C@H](O)[C@@H](O)[C@H](O)[C@H]3CO)c2)c([N+](=O)[O-])c1 [Compound 1140, (2R,3R,4R,5S)-1-[2-(3-{2-[(4-azido-2-nitrophenyl)amino]ethyl}-5-bromophenyl)ethyl]-2-(hydroxymethyl)piperidine-3,4,5-triol] | 4140 | 45 | 2090 | 674 | 3120
[N-]=[N+]=Nc1ccc(NCCNc2cc(Cl)cc(CCN3C[C@H](O)[C@@H](O)[C@H](O)[C@H]3CO)c2)c([N+](=O)[O-])c1 [Compound 1143, (2R,3R,4R,5S)-1-{2-[3-({2-[(4-azido-2-nitrophenyl)amino]ethyl}amino)-5-chlorophenyl]ethyl}-2-(hydroxymethyl)piperidine-3,4,5-triol] | 2010 | 2 | 796 | 404 | 2060
OC[C@@H]1[C@@H](O)[C@H](O)[C@@H](O)CN1CCCCCCNc1ccc(-c2cnccn2)cc1Cl [Compound 1198, (2R,3R,4R,5S)-1-(6-{[2-chloro-4-(pyrazin-2-yl)phenyl]amino}hexyl)-2-(hydroxymethyl)piperidine-3,4,5-triol] | 1 | 17 | 47 | 2700 | < 1
CS(=O)(=O)c1cc(NCCCCCCN2C[C@H](O)[C@@H](O)[C@H](O)[C@H]2CO)cc(-c2ncccn2)c1 [Compound 1128, (2R,3R,4R,5S)-2-(hydroxymethyl)-1-(6-{[3-methanesulfonyl-5-(pyrimidin-2-yl)phenyl]amino}hexyl)piperidine-3,4,5-triol] | 39 | 1 | 5 | 5200 | < 1
[N-]=[N+]=Nc1ccc(NCc2ccc(CN3C[C@H](O)[C@@H](O)[C@H](O)[C@H]3CO)cc2)c([N+](=O)[O-])c1 [Compound 1170, (2R,3R,4R,5S)-1-[(4-{[(4-azido-2-nitrophenyl)amino]methyl}phenyl)methyl]-2-(hydroxymethyl)piperidine-3,4,5-triol] | 2 | < 1 | 81 | 29900 | < 1
O=[N+]([O-])c1cc(CCO)ccc1NCCCCCCN1C[C@H](O)[C@@H](O)[C@H](O)[C@H]1CO [Compound 1292, (2R,3R,4R,5S)-1-(6-{[4-(2-hydroxyethyl)-2-nitrophenyl]amino}hexyl)-2-(hydroxymethyl)piperidine-3,4,5-triol] | 40 | 8.6 | 28 | 1600 | 11
COc1cc(NCCCCCCN2C[C@H](O)[C@@H](O)[C@H](O)[C@H]2CO)cc(C2CCCCC2)c1 [Compound 1148, (2R,3R,4R,5S)-1-{6-[(3-cyclohexyl-5-methoxyphenyl)amino]hexyl}-2-(hydroxymethyl)piperidine-3,4,5-triol] | 1 | < 1 | 88 | 2 | < 1
COc1cc(NCCc2ccc(CCN3C[C@H](O)[C@@H](O)[C@H](O)[C@H]3CO)cc2)cc(-c2ccco2)c1 [Compound 1153, (2R,3R,4R,5S)-1-{2-[4-(2-{[3-(furan-2-yl)-5-methoxy-phenyl]amino}ethyl)phenyl]ethyl}-2-(hydroxymethyl)piperidine-3,4,5-triol] | 2500 | 544 | 57 | 1090 | 321
